Experimental data reported in US11110168B2, “Nanoparticles, controlled-release dosage forms, and methods for delivering an immunotherapeutic agent” (NORTH CAROLINA STATE UNIVERSITY, priority 2016, dated 2021).

B1: cDNCs (with CpG, without cutting sites): control DNA nano-cocoon with CpG, without HhaI cutting sites (nucleic acid)
chain: ATATGTCGTCGTTCGAACGACGTTATATAACGTCGTTCGAACGACGTTATATGTCGTCGTTCGAACGACGTT
modifications: listed as DNA, chemistry not fully specified; the letters are possibly those of the target site

Key:
[1] = In vivo retention and biodistribution after MN administration in mice bearing B16F10 melanoma; parameters: species or system mouse; conditions: for Cy5.5 signal around the melanoma site (retention): MN administration, imaging day 1, day 3, day 5
Procedure: HA-NPs formulation with conjugated 1-MT and encapsulated aPD1 can improve their physicochemical properties. Therefore, the in vivo kinetics of free aPD1/1-MT and NPs following MN administration were evaluated in the mice model bearing B16F10 melanoma. The drug retention capability was tested at the tumor site after the MN administration. In vivo […] imaging was conducted at day 1, day 3 and day 5 post injection of the MN loaded with aPD1 and Cy5.5-1-MT-HA or free Cy5.5-1-MT. […] A similar pattern was observed compared to the biodistribution at the tumor site and other organs in the control group. […] The sustained high concentrations of the drugs within tumor regions as well as in peripheral circulation would enhance the immune system capability to treat not only primary tumor but also metastatic tumors in the body.
For the fluorescent NPs, Cyanine5.5 NHS ester (Lumiprobe, Cy5.5) was covalently coupled to the primary amines of the aPD1 and 1-MT. The Cy5.5 was dissolved in anhydrous DMSO immediately before use, at a concentration of 10 mg/ml. Cy5.5 and 1-MT reacted at optimal ratio of 5:1. For the conjugation with aPD1, 40 μg Cy5.5 per mg of antibody was mixed immediately. The tube was wrapped in foil and incubated at room temperature for 1 hour. The unreacted Cy5.5 was removed and the aPD1 was exchanged by gel filtration using Sephadex G-25M.

[2] = test system: restriction enzyme HhaI; assay: Digestion of DNCs by restriction enzyme HhaI, gel electrophoresis; format: biochemical; conditions: treated with HhaI
Procedure: Release studies were performed at 37° C. with constant agitation in PBS+10% fetal ovine serum. PBS, MMP-9 (500 ng/mL, Sigma) or Lipase (10 000 U, Sigma) were added to samples to study the DNA and antibody release. The DNA disintegration was analyzed by agarose gel electrophoresis using 1% (w/v) agarose gel and the antibody release was determined by IgG total ELISA kit (eBioscience).
Two different control DNCs (cDNC) with a non-specific sequence were synthesized (Table 1) to verify the design.
As shown in agarose gels (FIG. 7), without HhaI treatment, these cDNCs cannot migrate in the gel as DNCs.

| Molecule | Cy5.5 signal around the melanoma site (retention) [1] | biodistribution in the tumor and the major organs ([1]; Cy5.5-labeled 1-MT after MN administration) | cleavage by HhaI (gel electrophoresis) [2] |
| --- | --- | --- | --- |
| 1-methyl-DL-tryptophan [1-MT] | little signal could be detected | – | – |
| Cn1cc(CC(N)C(=O)O)c2ccccc21 (racemic) [1-MT, 1-methyl-DL-tryptophan] | quickly cleaved from the patch and eliminated by the body within one day | highest accumulations in the tumor followed by the lung and liver | – |
| cDNC (with cutting sites, without CpG): control DNA nano-cocoon with HhaI cutting sites, without CpG (GTATTATTTCGAAATAATTTGTATTATT; 5' phosphate, chemistry not fully specified; the letters are possibly those of the target site) | – | – | readily cut into smaller homogeneous fragments |
| B1 | – | – | resistant to cleavage by HhaI |
